For seven compounds, IC50 results are on record in patent US8697685B2, “Chemical compounds” (GlaxoSmithKline LLC, priority 2008, dated 2014).

Structures are written as SMILES. pIC50: −log10 of the molar value.

The target in experiment [1] is T1, full length PDK1 (Homo sapiens, UniProt O15530).
T1 construct: Full-length human 3-Phosphoinositide Dependent protein Kinase-1; made in house; host or cells: baculovirus / Sf9 insect cells
T1 sequence (O15530 1-556): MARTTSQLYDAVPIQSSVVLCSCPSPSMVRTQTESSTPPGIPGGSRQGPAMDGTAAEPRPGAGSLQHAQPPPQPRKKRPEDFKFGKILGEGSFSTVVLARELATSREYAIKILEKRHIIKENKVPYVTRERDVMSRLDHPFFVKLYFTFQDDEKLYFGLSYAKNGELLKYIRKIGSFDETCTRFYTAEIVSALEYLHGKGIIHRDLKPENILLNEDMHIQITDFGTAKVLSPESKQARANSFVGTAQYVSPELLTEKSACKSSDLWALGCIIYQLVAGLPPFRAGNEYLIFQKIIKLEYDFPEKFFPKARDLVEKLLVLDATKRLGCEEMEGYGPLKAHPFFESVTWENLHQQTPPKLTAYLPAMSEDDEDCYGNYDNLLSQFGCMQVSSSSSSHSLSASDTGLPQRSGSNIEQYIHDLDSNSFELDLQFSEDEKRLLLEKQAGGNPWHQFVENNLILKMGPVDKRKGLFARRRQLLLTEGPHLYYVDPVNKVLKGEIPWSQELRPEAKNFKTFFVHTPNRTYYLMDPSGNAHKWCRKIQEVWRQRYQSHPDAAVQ
Nature of the experiment: PDK1 enzyme assays (substrate phosphorylation: LEADseeker scintillation proximity, TR-FRET, PDKtide). Type of experiment: biochemical. The settings on record: in at least one experimental run, read-out: IC50 against full length PDK1. The procedure:
Substrate phosphorylation assays are carried out as follows:
Biotinylated-hAKT1: Human AKT1 (containing amino acid residues 136-480, as annotated by National Center for Biotechnology Information (NCBI) accession number AAL55732.1, with a MetLysLysHis6 N-terminal addition) is purified to >90% from lysate of baculovirus expression by Nickel Chelating ProBond resin (InVitrogen), Q-Sepharose Fast Flow, and Superdex 200 size exclusion chromatography. Biotinylation is achieved using EZ-Link Sulfo-NHS-LC Biotin (Pierce). Samples, in 25 mM HEPES, pH 7.5, 200 mM NaCl, 2 mM DTT, and 30% glycerol are stored at −80C until use.
(§1) Full-length human 3-Phosphoinositide Dependent protein Kinase-1 (hPDK1; National Center for Biotechnology Information (NCBI) accession number AAH39158.1 with a MetGlyHis6 N-terminal addition) is purified from baculovirus expression in Sf9 cells. Purity of approximately 80% is achieved by the use of chelation chromatography (Ni-NTA Superflow) and desalting columns. Samples, in 25 mM HEPES, 150 mM NaCl, 2.5 mM DTT, 0.05% Triton, 30% glycerol, pH 8.0, are stored at −80° C. until use.
The 39 amino acid biotinylated-PDKtide peptide Seq. ID No. 1: (Biotin-Ahx-[…]) was custom synthesized by 21st Century Biochemicals. […] The concentration was confirmed by quantitative amino acid analysis.
Scintillation Proximity (LEADseeker) Kinase Assay of Purified hPDK1:
Assays are performed in 384-well microtiter plates (Greiner, Catalog No. 784075). The reaction volume (10 μl) contains, in final concentrations, 25 mM MOPS (pH 7.5), 10 mM MgCl2, 50 mM KCl, 0.1 mg/ml BSA, 1 μM ATP, 3 uCi/ml ^33PγATP, 5 mM DTT, 1 mM CHAPS or 0.05% Tween20, 0.35 μM AKT1 biotinylated protein, and 10 nM hPDK1.
Compounds, titrated in DMSO, are evaluated at eleven concentrations ranging from 50 μM to 2 μM. […] Reactions are stopped after 3 hours at room temperature by the addition of 50 mM EDTA, 5 mg/ml LEADseeker beads (GE Healthcare) in PBS (10 ul). Beads are allowed to settle overnight, and samples are imaged on Viewlux (PerkinElmer).
(§2) The data for compound concentration responses were plotted as % Inhibition, calculated with the data reduction formula 100*(1−[(U1−C2)/(C1−C2)]), versus concentration of compound, where
(§3) Data were fitted to the curve described by:
TR-FRET Kinase Assay of Purified hPDK1:
Assays are performed in 384-well microtiter plates (Greiner, Catalog No. 784076).
As previously described for the Scintillation Proximity protocol, hPDK1 is pre-incubated (30 minutes at room temperature) with compounds before initiating phosphorylation of AKT1 by addition of substrate to the hPDK1 and compound mix. Reactions are stopped after 4-6 hours at room temperature by the addition to final concentrations of 0.02 M EDTA, 0.0875 μM Streptavidin APC (PerkinElmer), 0.03 μM AKT1 (phospho T308) antibody (Abcam Inc.), 0.00375 μM Lance Eu-labeled anti rabbit IgG Antibody (PerkinElmer). Antibody binding reaches equilibrium in 30 minutes before signal is read on an EnVision™ 2103 Multilabel Reader (PerkinElmer). APC Signals are normalized to Europium signal. Data processing is the same as described for the Scintillation Proximity assay with the exception of the generation of the “C2” control by addition of buffer without hPDK1 to control wells at t=0 instead of EDTA.
(§4) Scintillation Proximity (LEADseeker) Kinase Assay of Purified hPDK1 using Biotinylated-PDKtide Peptide:
(§5) Assays are performed in 384-well microtiter plates (Greiner, Catalog No. 784075). The reaction volume (10 μl) contains, in final concentrations, 25 mM MOPS (pH 7.5), 10 mM MgCl2, 50 mM KCl, 0.1 mg/ml BSA, 1 μM ATP, 3 uCi/ml ^33PγATP, 5 mM DTT, 0.5 mM CHAPS, 1 μM biotinylated-PDKtide peptide, and 0.5 nM hPDK1.
Compounds, titrated in DMSO, are evaluated at eleven concentrations ranging from 25 μM to 0.4 pM. […] Reactions are stopped after 4 hours at room temperature by the addition of 50 mM EDTA, 5 mg/ml LEADseeker beads (GE Healthcare) in PBS (10 ul).
Background: SPA uses beads or plates that emit light when radiolabelled molecules are held near them.

For experiment [2], the target named is T1, full length PDK1. Nature of the experiment: Scintillation Proximity (LEADseeker) kinase assay of purified hPDK1 using biotinylated-PDKtide peptide. The note with it: in at least one experimental run; PDKtide substrate; read-out: IC50 against full length PDK1 using the PDKtide substrate assay. It is filed as biochemical. The procedure: as §1
The 39 amino acid biotinylated-PDKtide peptide Seq. ID No. 1: (Biotin-Ahx-[…]) was custom synthesized by 21st Century Biochemicals. The peptide was >95% pure and dissolved in HPLC grade water to give a final concentration of 1.1 mM. The concentration was confirmed by quantitative amino acid analysis.
as §4, §5
Compounds, titrated in DMSO, are evaluated at eleven concentrations ranging from 25 μM to 0.4 pM. […] No effect on activity relative to controls without DMSO is observed for hPDK1 at these DMSO amounts. hPDK1 is pre-incubated, 30 minutes at room temperature, with compounds before initiating phosphorylation of biotinylated-PDKtide peptide by addition of substrate to hPDK1/compound. Reactions are stopped after 4 hours at room temperature by the addition of 50 mM EDTA, 5 mg/ml LEADseeker beads (GE Healthcare) in PBS (10 ul). Beads are allowed to settle overnight, and samples are imaged on Viewlux (PerkinElmer).
as §2, §3
The results for each compound were recorded as pIC50 calculated as follows: […]

Experiment [3] relates to AKT phosphorylation at T308 in PC-3 cells. Put plainly: Phospho-AKT (T308) ELISA in PC3 cells. Type of experiment: cell-based. The settings on record: Homo sapiens, 6 hours compound treatment, in at least one experimental run, read-out: IC50 for inhibition of AKT phosphorylation at T308 in PC-3 cells. How it is done: Phospho-AKT (S473, T308, Total AKT) and phospho-RSK ELISA
PC3 cells (ATCC, Manassas, Va.) were plated in 96-well flat bottom plates (Corning, Lowell, Mass.) at a density of 15,000 cells/well in RPMI 1640 medium supplemented with 10% FBS. Cells were incubated at 37° C., 5% CO2 for 18-20 h. Compounds (dissolved in 100% DMSO) were diluted in an 11-point 3-fold dilution in DMSO. Compound dilution stocks were further diluted in RPMI 1640 with 10% FBS and added to each cell well. DMSO without compound was used in control wells. Final concentration of DMSO in each well was 0.15%. After 6 hours at 37° C. cells were washed with cold PBS (without calcium or magnesium) and lysed in lysis buffer (Meso Scale Discovery, Gaithersburg, Md.) supplemented with 1 protease inhibitor tablet/10 ml (Roche, Indianapolis, Ind.), 10 mM NaF, and 200 μl/10 ml Sigma phosphatase inhibitor 1 & 2 (Sigma Aldrich, St Louis, Mo.) for 30 min at 4° C. All washes were performed on a Bio Tek ELx405 plate washer (Bio Tek Instruments, Winooski, Vt.).
ELISA plates (Meso Scale Discovery; AKT Duplex, cat. N41100B-1; phospho AKT, cat. N411CAB-1; RSK, cat. N41ZB-1) were prepared by the addition of blocking buffer (3% Blocker A diluted in wash buffer (Meso Scale Discovery) for AKT duplex assay and phospho AKT assays; 5% Blocker A/1% Blocker B in Tris-buffered saline for RSK) for 1 hour and washed with wash buffer. Lysates were transferred to assay wells and incubated overnight at 4° C. Following washing with wash buffer, detection buffer (1% Blocker A in wash buffer for AKT duplex and phospho AKT or 1% Blocker A in TBS for RSK) with appropriate antibodies was added. Detection of AKT duplex and phospho AKT was carried out using a sulfo-tagged detection antibodies (Meso Scale Discovery). Detection of phospho-RSK was carried out sequentially with anti phospho-RSK1 (S221)/RSK2 (S227) (R&D systems, Minneapolis, Minn., cat. AF892) and goat anti-rabbit sulfo-tag antibody (cat R32AB-1; Meso Scale Discovery). Plates were incubated for 1 hour at room temperature and washed with wash buffer. Plates were read on a SECTOR™ Imager 6000 (Meso Scale Discovery) using Workbench software (Meso Scale Discovery) following addition of read buffer (Meso Scale Discovery) to each well. For analysis, phospho-AKT (S473) signals were normalized to total AKT, while phospho-AKT (T308) and phospho-RSK signals were analyzed without normalization. All values were expressed as percent of the DMSO-treated controls. IC50s were determined from inhibition curves using XLfit4 software (IDBS, Guildford, UK).
On the technique in general: In an ELISA, binding on a coated surface is turned into a signal by an enzyme label.

With `Nc1nc(NC2(Cc3ccccc3)CC2)cc(-c2ccc3c(N)n[nH]c3c2)n1` [Example 61, 6-(3-Amino-1H-indazol-6-yl)-N^4-[1-(phenylmethyl)cyclopropyl]-2,4-pyrimidinediamine], the pIC50 – broadly, the negative decadic logarithm of the IC50, by convention in mol/L – on full length PDK1 [1] is above 7.00; on full length PDK1 [2] it was 8.00.

Regarding `C[C@@H]1C[C@@H](N(C)C(=O)OC(C)(C)C)CN(c2cc(-c3ccc4c(N)n[nH]c4c3)nc(N)n2)C1` [Example 221, 1,1-Dimethylethyl{(3R,5R)-1-[2-amino-6-(3-amino-1H-indazol-6-yl)-4-pyrimidinyl]-5-methyl-3-piperidinyl}methylcarbamate], the pIC50 at full length PDK1 [1] is above 7.30; in experiment [3], above 6.00.

For `CC[C@@H]1CO[C@H](C(=O)NC2CCCCC2)CN1c1cc(-c2ccc3c(N)n[nH]c3c2)nc(N)n1` [Example 173, (2S,5R)-4-[2-Amino-6-(3-amino-1H-indazol-6-yl)-4-pyrimidinyl]-N-cyclohexyl-5-ethyl-2-morpholinecarboxamide], the pIC50 is above 7.70 at full length PDK1 [1] and 8.10 on full length PDK1 [2].

With `COc1cc(-c2cc(N3C[C@H](C)C[C@@H](NC(=O)OC(C)(C)C)C3)nc(N)n2)cc2[nH]nc(N)c12` [Example 214, 1,1-Dimethylethyl((3R,5R)-1-[2-amino-6-[3-amino-4-(methyloxy)-1H-indazol-6-yl]-4-pyrimidinyl]-5-methyl-3-piperidinyl)carbamate], the pIC50 at full length PDK1 [1] is above 7.30; on full length PDK1 [2] it was 8.70.

`CNc1nc(-c2ccc3c(C)n[nH]c3c2)cc(N2C[C@@H](C(=O)NC3CCCCC3)CC[C@H]2C)n1` [Example 83, (3S,6R)—N-Cyclohexyl-6-methyl-1-[2-(methylamino)-6-(3-methyl-1H-indazol-6-yl)-4-pyrimidinyl]-3-piperidinecarboxamide]: the pIC50 at full length PDK1 [1] was above 7.70; in experiment [3], above 6.00.

As for `CC[C@@H]1COCCN1c1cc(-c2ccc3c(N)n[nH]c3c2)nc(NC)n1` [Example 177, 6-[6-[(3R)-3-Ethyl-4-morpholinyl]-2-(methylamino)-4-pyrimidinyl]-1H-indazol-3-amine], the pIC50 on full length PDK1 [1] was above 6.82; at full length PDK1 [2], 7.60.

Regarding `CNc1nc(-c2ccc3c(N)n[nH]c3c2)cc(N2C[C@@H](C(=O)NCc3ccccc3)OC[C@H]2C)n1` [Example 161, (2S,5R)-4-[6-(3-Amino-1H-indazol-6-yl)-2-(methylamino)-4-pyrimidinyl]-5-methyl-N-(phenylmethyl)-2-morpholinecarboxamide], the pIC50 was above 7.70 on full length PDK1 [1] and above 6.00 in experiment [3].
